In experiment [1] the test system is rotenone-induced Parkinson's disease model mice. Kind of experiment: Pole test in rotenone-induced Parkinson's disease model mice. The settings on record: rotenone 30 mg/kg orally, Example 124 40 mg/kg IP once a day for 35 days; vs rotenone group; not significantly; FIG. 1(B-C). It is filed as in vivo, C57BL/6 mice. On the procedure:
(§1) C57BL/6 mice (n=61) were purchased from Samtako bio korea Co. Ltd (Osan, Korea.) Mice were housed in the room which offers 12 hours light/dark cycle with a temperature of 20˜22° C.
(§2) Mice were randomly divided into four groups: • Group 1: vehicle control mice, • Group 2: Compound of Example 124—treated mice, • Group 3: rotenone treated mice, • Group 4: Compound of Example 124—rotenone treated mice.
(§3) Rotenone was suspended in 0.5% Carboxymethyl cellulose (CMC) sodium salt. Compound of Example 124 were dissolved in Tween 80. 0.5% CMC and Rotenone (30 mg/kg) were administered orally, the compound of Example 124 (40 mg/kg) was injected intraperitoneally (IP) once a day for 35 days (5 weeks).
(§4) In the present invention, in order to confirm whether the compound of Example 124 (compound 124) improves the motor abnormalities found in rotenone-induced Parkinson's disease model mice, rota-rod test, pole test, and foot printing assay test were performed.
Pole test was performed using the Parkinson's disease model mice of Biological Experiment Example 1 as follows. […] Each trial was recorded through the camera locating in front of the pole. The time mice turned upside down (head down) and the time it completely climbs down the pole was measured through a recorded video file manually by using the software Boris. Results from manually counted files were scored and presented.

Experiment [2] shares this test system. Briefly: Foot printing assay (stride length) in rotenone-induced Parkinson's disease model mice. The class given is in vivo, C57BL/6 mice. The settings on record: rotenone 30 mg/kg orally, Example 124 40 mg/kg IP once a day for 35 days. On the procedure:
as §1, §2, §3, §4
Foot printing assay was performed using the Parkinson's disease model mice of Biological Experiment Example 1 as follows. Mice paws were dipped with non-toxic water paints (forelimbs in green and hind limbs in blue). Mice were placed in the corner of the enclosed maze with white paper lined through the maze and allowed to walk along the maze freely. […] Fore limb-stride length and hind limb-stride length were measured using ImageJ (NIH).

For experiment [3], the system named is TH+ neurons (dopaminergic neurons). Kind of experiment: Immunohistochemistry with tyrosine hydroxylase (TH) antibody, counting of TH+ neurons in rotenone mice. The note with it: rotenone 30 mg/kg orally, Example 124 40 mg/kg IP once a day for 35 days, FIG. 3(A-B). It is filed as in vivo, C57BL/6 mice. On the procedure:
as §2, §3
Dopaminergic neuron loss has been implicated in motor dysfunction in Parkinson's disease. In the present invention, stained the striatum with Tyrosine hydroxylase (TH) antibody to check out whether compound of Example 124 prevents the TH+ neuron cell death by rotenone.
(§5) Specifically, mice of Biological Experiment Example 1 were anesthetized with sevoflurane and perfused with PBS (phosphate-buffered saline). […]
All the images were taken using a fluorescence microscope (Leica DM LB2). To determine the loss of TH positive neurons and the prevention effect of the compound of Example 124 in the striatum, TH+ neurons were counted by using a cell counter plugin from ImageJ software (NIH).
Immunofluorescence images were analyzed using one-way ANOVA and post hoc analysis using Tukey's post hoc test (GraphPad Prism). […]

Experiment [4] has as its system Tyrosine hydroxylase (TH). Briefly: Western blotting of tyrosine hydroxylase (TH) in ventral midbrain protein of rotenone mice. The class given is in vivo, C57BL/6 mice. The note with it: rotenone 30 mg/kg orally, Example 124 40 mg/kg IP once a day for 35 days, FIG. 3(C-D). How it is done:
as §2, §3
(§6) Whole ventral midbrain was homogenized with RIPA buffer containing 1% Triton X 100, 0.5% deoxycholic acid, 0.2% SDS, 150 mM NaCl, 2 mM EDTA, protease inhibitors (PMSF, Aprotinin, NaF, Na3VO4). The homogenate was centrifuged at 13,000 rpm for 30 min on a rotator and the supernatant was used [Vergara, C., et al., Amyloid-beta pathology enhances pathological fibrillary tau seeding induced by Alzheimer PHF in vivo. Acta Neuropathol, 2019. 137(3): p. 397-412.]. Proteins were separated using SDS-PAGE with a concentration gradient of 8-20% SDS gels and transferred onto PVDF membranes (Immobilon P membrane, Millipore). Membranes blocked in 5% skim milk in TBST (Tris-Buffered saline-Tween®20) and immunolabeled with primary antibody, rabbit anti-tyrosine hydroxylase (TH) antibody (1:5000)). […]
(§7) Western blot data were analyzed using a t-test(1-tailed t-test). […]

For experiment [5], the system named is phosphorylated tau (p-Tau s262). Kind of experiment: Western blotting of phosphorylated tau (p-Tau s262) in rotenone mice. It is filed as in vivo, C57BL/6 mice. The settings on record: Example 124-rotenone-treated group vs rotenone-vehicle group; not significantly; FIG. 4. On the procedure:
as §2, §3, §6, §7

Experiment [6] relates to Acetylated alpha-tubulin (Ace-α-tubulin). Briefly: Western blotting of acetylated alpha-tubulin in rotenone mice. The class given is in vivo, C57BL/6 mice. The note with it: Example 124-rotenone-treated group; differences between groups not significant; FIG. 4. How it is done:
as §2, §3, §6, §7

Experiment [7] relates to Phosphorylated alpha-synuclein (s129). Briefly: Double immunostaining for TH and p-α-synuclein, inclusions in cell bodies of TH+ neurons of rotenone mice. The class given is in vivo, C57BL/6 mice. The settings on record: rotenone 30 mg/kg orally, Example 124 40 mg/kg IP once a day for 35 days; FIG. 5(A-B). On the procedure:
as §2, §3
Specifically, mice of Biological Experiment Example 1 were anesthetized with sevoflurane and perfused with PBS (phosphate-buffered saline). After perfusion, dissected the left hemisphere of the brain from the mice and fixed the right hemisphere brain with 4% PFA for 1 day [Shin, S. J., et al., Jowiseungchungtang Inhibits Amyloid-beta Aggregation and Amyloid-beta-Mediated Pathology in 5XFADMice. Int J Mol Sci, 2018. 19(12).]. The frozen brain was sectioned in the coronal way (30 μm thick) using a cryostat (Leica CM3000, Leica Microsystems, Nussloch, Germany). Sections were stored at deep freezer (−70° C.) until the immunohistochemistry analysis starts.
In all immunofluorescence labeling procedures, rinsed off the brain sections and blocked the tissues with cold PBST (0.1% Triton X-100 in PBS) containing 5% BSA and 5% goat serum at room temperature. […]

For another experiment, the system named is GFAP-positive astrocytes. Briefly: GFAP immunohistochemistry, activation level of astrocytes in striatum of rotenone mice. The note with it: rotenone 30 mg/kg orally, Example 124 40 mg/kg IP once a day for 35 days, FIG. 6. It is filed as in vivo, C57BL/6 mice. On the procedure:
as §2, §3, §5
(§8) To determine whether the compound of Example 124 affects regulating the activities of Rotenone-induced reactive astrocyte and microglia, in the present invention, obtained images of brain tissues stained with GFAP (Astrocyte marker) and Iba-1(microglia marker) antibodies. Through acquired images analyzed the activation level of astrocytes and microglia respectively by measuring fluorescent intensity. […]
(§9) All the images were taken using a fluorescence microscope (Leica DM LB2). […] The signal intensity of GFAP and Iba-1 was measured in the chosen fields of the equal area using Image J.

The test system of a further experiment is Iba-1-positive microglia. Kind of experiment: Iba-1 immunohistochemistry, activation level of microglia in striatum of rotenone mice. The class given is in vivo, C57BL/6 mice. On the procedure: as §2, §3, §5, §8, §9
Experiment [8] relates to Amyloid-beta precursor protein (APP). Briefly: Western blot of APP in Alzheimer's disease in vitro model (SH-SY5Y cells transfected with pcDNA3-APPswe). The class given is cell-based, human. The note with it: Example 124 100 uM, harvested 24 h after treatment, FIG. 7. On the procedure: In the present invention, the amyloid-beta precursor protein (APP) reduction effect of the compound of Example 124 in an In Vitro model of Alzheimer's disease (AD) was confirmed.
SH-SY5Y, a human neuroblastoma cell line, was used, and when the pcDNA3-APPswe vector was transfected, these cells generate an AD-inducing APP.
SH-SY5Y cells were incubated in DMEM with 10% FBS and 1% penicillin/streptomycin. 500,000 cells/well was plated in a 6 well plate and transfected 24 h later.
Cells were transfected with pcDNA3-APPswe or pcDNA3 vectors using Lipofectamine 2000 (Invitrogen). After 4 h incubation, the transfection mixture (Lipofectamine+Vector) was replaced with 10% FBS in DMEM. compound of Example 124 (100 uM) or vehicle was treated in 20 h after transfection.
Cells were harvested 24 h after the compound of Example 124 treatments. Cells were washed twice with ice-cold PBS and lysed in RIPA buffer (1% Triton X-100, 0.5% deoxycholic acid, 0.2% SDS, 150 mM sodium chloride, 2 mM EDTA) with 1 mM PMSF, 2 ug/ml aprotinin, 10 ug/ml leupeptin, and 10 mM sodium fluoride.
The lysate was passed several times through a 26½-gauge syringe needle and centrifuged at 16,200*g for 20 min. The supernatant was quantified with the Bradford assay. 30 ug of protein samples, separated by SDS-PAGE, were transferred to the PVDF membrane. […]

Experiment [9] deals with Amyloid-beta (Aβ). Kind of experiment: Immunofluorescence of amyloid-beta in primary cultured cortical neurons. The class given is cell-based. The note with it: primary cortical neurons treated with amyloid-beta and Example 124 (4 uM) together; FIG. 8. How it is done: Primary cortical neurons were harvested from the E12-14 embryo. Briefly, isolated cortices were incubated for 20 min at 37° C. in HBSS with 0.25% trypsin-EDTA, 0.1% DNase I. The cortices were dissociated by trituration in NBA media (Neurobasal medium with 2% B27, 2 mM 1-glutamine, and 1% penicillin/streptomycin). Cells were plated in poly-D-lysine coated 24-well plates at 50,000 cells/well. After 3 days of culture, Amyloid-beta and compound of Example 124 (4 uM) were treated.
Cortical neurons were fixed for 15 min at room temperature with 4% paraformaldehyde and 4% sucrose in PBS solution. Fixed neurons were incubated with blocking buffer (3% goat serum, 3% BSA in PBS-T (0.15% Triton-X100)) for 30 min at room temperature. After labeling with a primary antibody, cells were incubated with Alexa Fluor 488- or 568-conjugated secondary antibody. Aβ (6e10, Covance, 1:3000) and NeuN (abl77487, Abcam, 1:2000) were used as primary antibody.

Experiment [10] deals with Amyloid-beta (Aβ). Kind of experiment: Anti-Aβ staining of brain tissue sections (choroid plexus cells) of treated mice. It is filed as in vivo, C57BL/6 mice. The settings on record: orally administered for 6 weeks; vs vehicle (30% PEG400) mice; FIG. 9. How it is done:
Amyloid-beta (Aβ) is a substance that is naturally produced and degraded In Vivo. Therefore, in the present invention, it was attempted to determine whether Amyloid-beta production was reduced in the compound of Example 124-treated mice.
C57BL/6 mice were purchased from Samtako bio Korea Co. Ltd (Osan, Korea.) Mice were housed in the room which offers a 12 hours light/dark cycle with a temperature of 20˜22° C. All experiments and animal care were approved by the Institutional Animal Care and Use Committee of Chonnam National University (Korea).
Mice were divided into a vehicle mice group and a drug-treated group, and then the vehicle (30% PEG400) or compound of Example 124 was orally administered for 6 weeks.
Mice were anesthetized with sevoflurane and perfused with PBS. After perfusion, the right hemisphere brain was fixed with 4% paraformaldehyde for one day. The frozen brains were sectioned at 30 um thickness. The tissue sections were blocked with 3% Goat serum and 3% BSA in cold PBS-T (0.15% Tx-100) for 30 min. Sections were then stained using anti-Aβ (ab5078p, millipore) 1:3000 in PBS. After 3 days of primary antibody labeling, sections were incubated with an Alexa Fluor 568 conjugated secondary antibody for 1 day. For each mouse, 8-10 tissue sections were quantified, and the Aβ intensity was measure at 15 choroid plexus cells. The measurement was done using Image J software.

Take `CO[C@@H](c1ccccc1Cl)[C@H](C)OC(N)=O` [Example 124, 1-(2-chlorophenyl)-(S)-1-methoxypropyl-(S)-2-carbamate]: the “pole test: time climbing down the pole / score” value in experiment [1] is listed as “slightly attenuated”. Further, the “stride length of forepaw” value in experiment [2] (FIG. 2(A)) is reported as “ameliorated”. Besides, the “stride length of hind paw” value in [2] (FIG. 2(B)) is recorded as “ameliorated”. The “rotenone-induced TH+ cell death (number of TH positive cells)” value in [3] is reported as “significantly blocked”. Also, the “tyrosine hydroxylase (TH) expression (TH/B-actin)” value in [4] is given as “increased”. For the same molecule, the “phosphorylation of tau protein (p-Tau s262)” value in experiment [5] was “decreased”. The α-tubulin acetylation levels entry in experiment [6] was “increase”. The “accumulation of α-synuclein in the soma (p-α-synuclein inclusions in TH+ neurons)” value in [7] is on record as “dramatically decreased”. For the same molecule, the “activation of astrocytes by rotenone (GFAP intensity)” value in the experiment on GFAP-positive astrocytes is given as “attenuated”. The “efficacy in microglia compared with astrocytes (relative Iba-1 and GFAP intensity)” value in the experiment with Iba-1-positive microglia (FIG. 6(C-D)) is “more dramatic and obvious in microglia than in astrocytes”. For the same molecule, in the experiment with Iba-1-positive microglia (rotenone 30 mg/kg orally, Example 124 40 mg/kg IP once a day for 35 days, FIG. 6), the “activation of microglia by rotenone (Iba-1 intensity)” value is on record as “attenuated”. Moreover, the “amount of APP protein (APP/B-actin)” value in [8] is on record as “decreased”. Besides, in the experiment on Amyloid-beta (Aβ) [9], the amount of amyloid-beta entry was “decreased”. In the experiment with Amyloid-beta (Aβ) [10], the “amount of endogenous amyloid-beta (Aβ intensity)” value is “reduced”.
